{"source": "patent US20250325711A1", "about": "“COVALENT FLUORESCENT PROBES FOR CANNABINOID RECEPTOR 2” (Hoffmann-La Roche Inc., priority 2022, published 2025)", "biological_target": "hCB2R (Homo sapiens (Human), UniProt P34972)", "assay": "TR-FRET hCB2R Binding Assay", "settings": "SNAP-tagged human CB2R HEK293-TR cell membranes, TR-FRET (HTRF) detection, nonspecific binding with 1 μM SR144528; read-out: Kd hCB2R", "data": [{"smiles": "CCN(CC)c1ccc2cc(C=Cc3ccc(S(=O)(=O)[O-])c[n+]3CCCCCC(=O)NCCOCCn3cc(CCC(=O)N(CC#N)S(=O)(=O)c4ccc(C(=O)NCCCCCCC(=O)NCC5=C[C@H](c6c(OC)cc(C(C)(C)CCCCCCN=[N+]=[N-])cc6OC)[C@@H]6C[C@H]5C6(C)C)cc4)nn3)c(=O)oc2c1", "note": "[Example 12, 1-(6-((2-(2-(4-(3-((4-((7-((((1S,4S,5S)-4-(4-(8-azido-2-methyloctan-2-yl)-2,6-dimethoxyphenyl)-6,6-dimethylbicyclo[3.1.1]hept-2-en-2-yl)methyl)amino)-7-oxoheptyl)carbamoyl)-N-(cyanomethyl)phenyl)sulfonamido)-3-oxopropyl)-1H-1,2,3-triazol-1-yl)ethoxy)ethyl)amino)-6-oxohexyl)-6-(2-(7-(diethylamino)-2-oxo-2H-chromen-3-yl)vinyl)pyridin-1-ium-3-sulfonate]", "values": [{"measurement": "Kd", "value": 25, "unit": "nM"}]}]}
